Reference: US20110189260A1, “USE OF ZINC CHELATORS TO INHIBIT BIOFILM FORMATION” (UNIVERSITY OF CINCINNATI, priority 2008, published 2011)
Several values for one entry are separate records, joined by “and”; a condition that tells them apart may be missing. Equal entries are not always repeated. Entries after “also recorded” stand apart in the source; their conditions may differ.

B1: MBP-Brpt1.5: soluble Brpt1.5 as a maltose-binding protein (MBP) fusion (protein)
chain: VDGDSITSTEEIPFDKKREFDPNLAPGTEKVVQKGEPGTKTITTPTTKNPLTGEKVGEGEPTEKITKQPVDEIVHYGGEQIPQGHKDEFDPNAPVDSKTEVPGKPGVKNPDTGEVVTPPVDDVTKYGPVDGDSITSTEEIPFDKKREFDPNLAPGTEKVVQKGEPGTKTITTPTTKNPLTGEKVGEGKSTEKVTKQPVDEIVEYGPTK
modifications: left off: large carriers

Experiments:
[1] = test system: Staphylococcus aureus Strain COL; assay: Biofilm formation assay in FBS pre-treated 96 well plates, crystal violet (Example 10); assay type: cell-based; settings: 2% sucrose, 36-40 hours
Procedure: 3 ml overnight cultures were grown in blood-heart infusion broth (BHI) shaking at 37° C., where cultures were diluted 1:25 for use in the biofilm assay.
2% sucrose (20 μl from a 20% sucrose stock) was added to each well prior to the addition of the bacterial culture to promote biofilm formation. In addition, 96 well microtiter plates were pre-treated with fetal bovine serum (FBS) at 4° C. for at least 24 hours prior to use. The FBS was aspirated prior to addition of chelators and sucrose for the assay. […] 20 μl of each stock solution (200, 400, 800, 1600, 3200, 6400, 13000, or 26000 μM chelator) was added to each well. 200 μl of the 1:25 dilution of COL bacterial culture (as previously specified) was added to each well. Controls with bacterial culture media only and bacterial culture media plus vehicle controls only (i.e, final concentrations 10 mM HCl, 10% ethanol, and 10 mM NaOH) were added to wells alone without chelator. The 96 well plates were then incubated 36-40 hours statically at 37° C. Media was aspirated by pipet and wells were washed twice with filtered water. The plates were dried by inversion for 1 hour, and stained with 0.1% crystal violet for 15 minutes. Crystal violet was then aspirated by pipet and washed once with filtered water. The plates were then read on a spectrophotometer at a wavelength of 570 nm. An absorbance greater than 0.1 indicates biofilm formation.

[2] = test system: Methicillin-Resistant Staphylococcus aureus Strain USA300; assay: Biofilm formation assay in fibronectin pre-treated 96 well plates, crystal violet (Example 11); assay type: cell-based; settings: USA300, 2% glucose, 36-40 hours
Procedure: S. aureus strain USA300 was obtained from Daniel Hassett (University of Cincinnati) as a glycerol stock. 3 ml overnight cultures were grown in blood-heart infusion broth (BHI) shaking at 37° C., where cultures were diluted 1:25 for use in the biofilm assay. 2% glucose (20 ul from a 20% glucose stock) was added to each well prior to the addition of bacterial culture to promote biofilm formation. In addition, 96 well microtiter plates were pre-treated with human fibronectin (BD biomedical purchased from Fisher scientific). The fibronectin was aspirated prior to addition of chelators and glucose for the assay. Each chelator (prepared in Examples 1-6) was added directly to a 96 well microtiter plate in a series of dilutions. 20 μl of each stock solution (200, 400, 800, 1600, 3200, 6400, 13000, or 26000 μM chelator) was added to each well. 200 μl of the 1:25 dilution of USA300 bacterial culture dilution (as previously specified) were added to each well. Controls with bacterial culture media only and bacterial culture media plus vehicle controls only (final concentrations 10 mM HCl, 10% ethanol, and 10 mM NaOH) were added to wells alone without chelator. The 96 well plates were then incubated 36-40 hours statically at 37° C. Media was aspirated by pipet and wells were washed twice with filtered water. The plates were dried by inversion for 1 hour, and stained with 0.1% crystal violet for 15 minutes. Crystal violet was then aspirated by pipet and washed once with filtered water. The plates were then read on a spectrophotometer at a wavelength of 570 nm. An absorbance greater than 0.1 indicates biofilm formation.

[3] = test system: Staphylococcus aureus Strain Rosenbach SA113; assay: Biofilm formation assay in FBS pre-treated 96 well plates, crystal violet (Example 9); assay type: cell-based; settings: SA113, 2% glucose, 36-40 hours
Procedure: In addition, 96 well microtiter plates were pre-treated with fetal bovine serum (FBS) at 4° C. for at least 24 hours prior to use. The FBS was aspirated prior to addition of chelators and glucose for the assay. […] The 96 well plates were then incubated 36-40 hours statically at 37° C. Media was aspirated by pipet and wells were washed twice with filtered water. The plates were dried by inversion for 1 hour, and stained with 0.1% crystal violet for 15 minutes. Crystal violet was then aspirated by pipet and washed once with filtered water. The plates were then read on a spectrophotometer at a wavelength of 570 nm.

[4] = test system: Methicillin-Resistant Staphylococcus epidermidis Strain RP62a; assay: Biofilm formation assay in 96 well plates, crystal violet, absorbance at 570 nm (Example 8); assay type: cell-based; settings: 18-24 hours, 37° C.
Procedure: S. epidermidis strain RP62a (ATCC 35984) was obtained as a glycerol stock from ATCC. 3 ml overnight cultures were grown in tryptic soy broth (TSB, BD Biomedical), shaking at 37° C., and cultures were diluted 1:200 in TSB for use in the biofilm assay.
Each chelator (prepared in Examples 1-6) was added directly to a 96 well microtiter plate in a series of dilutions. 20 μl of each stock solution (200, 400, 800, 1600, 3200, 6400, 13000, or 26000 μM chelator) was added to each well. 200 μl of the 1:200 dilution of RP62a bacterial culture (as previously specified) was added to each well. Controls with bacterial culture media only and bacterial culture media plus vehicle controls only (i.e., final concentrations 10 mM HCl, 10% ethanol, or 10 mM NaOH) were added to wells alone without chelator. The 96 well plates were then incubated 18-24 hours statically at 37° C. Media was aspirated by pipet and wells were washed twice with filtered water. The plates were dried by inversion for 1 hour, and stained with 0.1% crystal violet for 15 minutes. Crystal violet was then aspirated by pipet and washed once with filtered water. The plates were then read on a spectrophotometer at a wavelength of 570 nm. An absorbance greater than 0.1 indicates biofilm formation.

[5] = test system: S. epidermidis RP62A biofilms; assay: RP62A biofilms on polystyrene visualized with crystal violet (FIG. 3A, 3C, 4, 7, 8); assay type: cell-based; settings: RP62A; for effect of divalent cation salt on biofilm inhibition by DTPA: up to 60 μM salt, FIG. 7
Procedure: (§1) FIG. 3. (A) S. epidermidis RP62A biofilms formed on polystyrene and were visualized with crystal violet; addition of the Zn^2+ chelator DTPA (≧30 μM) inhibits biofilm formation. Representative wells have been scanned (bottom). Untreated (“RP62A”) and vehicle (“HCl”) controls are shown. Error bars show standard deviation (* indicates p<0.05 relative to untreated control; n=3); (B) Methicillin-resistant S. aureus USA300 biofilms form on fibronectin-coated plates but are inhibited by addition of DTPA (≧30 μM). (*: p<0.05; n=4); (C) Addition of 5-20 μM ZnCl2 at a minimal inhibitory dose of DTPA (30 μM) rescues biofilm formation by RP62A.
FIG. 4. […] (*: p<0.05 relative to RP62A control at the relevant Zn^2+ concentration; n=3); (B) Dose response of biofilm inhibition by MBP-Brpt1.5 at a fixed 1 mM ZnCl2 concentration. (*: p<0.0005; n=3); (C) The “zinc zipper” model for intercellular adhesion in staphylococcal biofilms mediated by zinc-dependent self-association of G5 domains.
FIG. 7. […] All data at 30 μM DTPA show statistically significant decreases compared to no-treatment control (RP62A). Statistically significant increases over the 0 μM MnCl2/30 μM DTPA datapoint are marked with an asterisk (*).
To test the physiological role of Zn^2+-mediated G5 adhesion in the formation of staphylococcal biofilms, both S. epidermidis and S. aureus biofilms were grown in culture in the presence or absence of the Zn^2+ chelator diethylenetriaminepentaacetic acid (DTPA). DTPA was non-toxic at all concentrations tested (up to 100 μM). S. epidermidis strain RP62A formed robust biofilms when cultured in media alone, but biofilm growth was inhibited by non-toxic doses of DTPA (≧30 μM) (FIG. 3A).
To determine whether Zn^2+-dependent biofilm formation is specifically dependent upon G5 domain-mediated self-assembly, soluble Brpt1.5 was added to S. epidermidis RP62A biofilms as a maltose-binding protein (MBP) fusion. Because of the higher Zn^2+ concentrations required to induce dimerization in the short construct compared to full-length Aap, inhibition by MBP-Brpt1.5 was tested at Zn^2+ concentrations ranging up to 1 mM. RP62A biofilms were inhibited by soluble MBP-Brpt1.5 in the presence of 0.75 and 1 mM ZnCl2, whereas addition of MBP alone had no effect (FIG. 4A). […] Thus, addition of even a single intact zinc adhesion module in a soluble form is capable of inhibiting biofilm formation, highlighting the role of this domain as a Zn^2+-dependent adhesion module in staphylococcal biofilms.

[6] = test system: Methicillin-resistant S. aureus USA300 biofilms; assay: USA300 biofilms on fibronectin-coated plates (FIG. 3B, 3D); assay type: cell-based; settings: USA300, at minimal inhibitory dose of DTPA (30 μM), FIG. 3D
Procedure: as §1
S. aureus strain USA300, which is responsible for recent epidemic outbreaks of community-acquired methicillin-resistant S. aureus (MRSA) infections, formed biofilms on fibronectin-coated plates. As observed for S. epidermidis, the MRSA biofilms were inhibited by Zn^2+ chelation (≧30 μM DTPA) (FIG. 3B). […] Like S. epidermidis, the MRSA strain USA300 could be rescued by the addition of 15-20 μM ZnCl2 (FIG. 3D). Importantly, at the minimal inhibitory concentration of DTPA (30 μM), biofilm growth by both staphylococcal species could be rescued by the addition of 5-20 μM ZnCl2; these Zn^2+ concentrations are similar to the physiological range in human plasma (12-16 μM resting concentration).

[7] = biological target: Aap (Accumulation-associated protein) on Staphylococcus epidermidis strain RP62A cells (Staphylococcus epidermidis); assay: cell-based or functional assay

Molecule | chelator concentration at which biofilms were diminished but not cleared [1] [µM] | chelator concentration at which biofilms were diminished but not cleared [3] [µM] | chelator concentration at which biofilms were inhibited (absorbance of 0.1 or less) [3] [µM] | chelator concentration at which biofilms were diminished but not cleared [4] [µM] | chelator concentration at which biofilms were inhibited (absorbance of 0.1 or less) [4] [µM] | effect of divalent cation salt on biofilm inhibition by DTPA ([5]; 30 μM DTPA) | also measured
c1cnc2c(c1)ccc1cccnc12 [1,10-phenanthroline] | 80 | 320 | 1300 | 80 | 640 | – | chelator concentration above which biofilms were inhibited (absorbance of 0.1 or less) [1]: > 320 µM; chelator concentration above which biofilms were inhibited (absorbance of 0.1 or less) [2]: > 1.3 mM; chelator concentration at which biofilms were diminished but not cleared [2]: 160 µM
[Ca+2].[Cl-].[Cl-] [CaCl2] | – | – | – | – | – | does not reverse; also recorded: no effect | –
CCN(CC)C(=S)S [DEDTC, diethyldithiocarbamate] | 20 | 80 | 80 | 20 | 1300 | – | chelator concentration above which biofilms were inhibited (absorbance of 0.1 or less) [1]: > 80 µM
O=C(O)CNCCNCC(=O)O [EDDA, ethylenediamine-N,N′-diacetic acid] | 160 | 20 | 640 | 80 | – | – | –
O=C(O)CN(CCN(CC(=O)O)CC(=O)O)CC(=O)O [EDTA, ethylenediaminetetra-acetic acid] | 20 | 320 | – | 40 | 320 | – | chelator concentration above which biofilms were inhibited (absorbance of 0.1 or less) [1]: > 160 µM; chelator concentration above which biofilms were inhibited (absorbance of 0.1 or less) [2]: > 2.6 mM; chelator concentration at which biofilms were diminished but not cleared [2]: 1300 µM
[Cl-].[Cl-].[Mg+2] [MgCl2] | – | – | – | – | – | does not reverse; also recorded: no effect | –
[Cl][Mn][Cl] [MnCl2] | – | – | – | – | – | partial rescue | concentration that effected partial rescue of biofilm formation ([5]; 30 μM DTPA, FIG. 7D): ≥ 10 µM
[Cl-].[Cl-].[Sr+2] [SrCl2] | – | – | – | – | – | does not reverse; also recorded: no effect | –
c1ccc(CN(CCN(Cc2ccccn2)Cc2ccccn2)Cc2ccccn2)nc1 [TPEN, N,N,N′,N′-tetrakis(2-pyrdiylmethyl)ethylenediamine] | – | 20 | 40 | – | 20 | – | chelator concentration at which biofilms were diminished but not cleared [2]: 20 µM
[Cl-].[Cl-].[Zn+2] [ZnCl2] | – | – | – | – | – | – | concentration that rescues biofilm formation [6]: 15 to 20 µM; concentration that rescues biofilm formation ([5]; at minimal inhibitory dose of DTPA (30 μM), FIG. 3C): 5 to 20 µM
MBP-Brpt1.5 (soluble Brpt1.5 as a maltose-binding protein fusion) (from UniProt Q8CQD9 1089-1296) | – | – | – | – | – | – | concentration that completely abolished RP62A biofilm formation at 1 mM ZnCl2 [7]: 10 µM and 22 µM
B1 | – | – | – | – | – | – | inhibition of biofilms by soluble protein ([5]; fixed 750 μM ZnCl2, FIG. 8): Dose-dependent biofilm inhibition; concentration that completely abolished biofilm formation ([5]; fixed 1 mM ZnCl2, FIG. 4B): 10 to 22 µM; inhibition of biofilms by soluble protein ([5]; in the presence of 0.75-1 mM ZnCl2, FIG. 4A): inhibits RP62A biofilms in a dose-dependent manner; also recorded: inhibited
